# Measured values published in patent US9868772B2 (INDIANA UNIVERSITY RESEARCH AND TECHNOLOGY CORPORATION, priority 2012, dated 2018).
# Numbered stars: 1 amine (or outer) side, 2 acyl side, 3 side chain; on linkers, the order of the positions; unused ones are H or OH. Square brackets hold non-standard residues; d marks the D form. Side chains are listed from the residue outwards. Peptide text beside a SMILES is read from it. * marks the point of attachment. γGlu = O=C(O)[C@H](CCC(=O)[*:2])N[*:1]; Desaminohistidyl = O=C(CCc1c[nH]cn1)*; Palmitoyl = CCCCCCCCCCCCCCCC(=O)*; 2Thi = N[C@@H](Cc1cccs1)C(=O)O; Aib = CC(C)(N)C(=O)O; Sar = CNCC(=O)O
# Columns and labels:
# Test in all cases: cAMP induction, firefly luciferase reporter assay in HEK293 cells co-transfected with receptor
# Type in all cases: cell-based
# Settings in all cases: Table 1, analogs of SEQ ID NO: 37
# GIP receptor = target: T1, GIP receptor (Homo sapiens, UniProt P48546)
# T1 construct: expressed in transfected cells; host or cells: HEK293
# T1 sequence (P48546 22-466): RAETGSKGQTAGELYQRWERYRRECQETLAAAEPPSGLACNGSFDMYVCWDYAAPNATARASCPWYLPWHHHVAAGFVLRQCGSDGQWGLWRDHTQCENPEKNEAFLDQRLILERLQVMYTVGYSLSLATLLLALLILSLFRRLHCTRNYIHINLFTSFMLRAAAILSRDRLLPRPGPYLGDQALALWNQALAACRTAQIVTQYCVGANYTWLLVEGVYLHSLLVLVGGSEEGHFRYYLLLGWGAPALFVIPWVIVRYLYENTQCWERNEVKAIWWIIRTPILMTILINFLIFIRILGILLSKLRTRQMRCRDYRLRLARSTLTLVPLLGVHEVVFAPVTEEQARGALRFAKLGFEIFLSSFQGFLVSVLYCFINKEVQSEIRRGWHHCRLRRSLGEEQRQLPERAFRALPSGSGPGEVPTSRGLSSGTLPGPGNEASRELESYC
# Procedure: (§1) The ability of glucagon analogs to induce cAMP was measured in a firefly luciferase-based reporter assay. […] At the end of the incubation 100 microliters of LucLite luminescence substrate reagent (Perkin-Elmer, Wellesley, Mass.) were added to each well. […] Effective 50% concentrations were calculated by using Origin software (OriginLab, Northampton, Mass.
# GLP-1 receptor = target: T2, GLP-1 receptor (Homo sapiens, UniProt P43220)
# T2 construct: expressed in transfected cells; host or cells: HEK293
# Procedure: as §1
# glucagon receptor = target: T3, glucagon receptor (Homo sapiens, UniProt P47871)
# T3 construct: expressed in transfected cells; host or cells: HEK293
# Procedure: as §1
# T3 sequence (P47871 26-477): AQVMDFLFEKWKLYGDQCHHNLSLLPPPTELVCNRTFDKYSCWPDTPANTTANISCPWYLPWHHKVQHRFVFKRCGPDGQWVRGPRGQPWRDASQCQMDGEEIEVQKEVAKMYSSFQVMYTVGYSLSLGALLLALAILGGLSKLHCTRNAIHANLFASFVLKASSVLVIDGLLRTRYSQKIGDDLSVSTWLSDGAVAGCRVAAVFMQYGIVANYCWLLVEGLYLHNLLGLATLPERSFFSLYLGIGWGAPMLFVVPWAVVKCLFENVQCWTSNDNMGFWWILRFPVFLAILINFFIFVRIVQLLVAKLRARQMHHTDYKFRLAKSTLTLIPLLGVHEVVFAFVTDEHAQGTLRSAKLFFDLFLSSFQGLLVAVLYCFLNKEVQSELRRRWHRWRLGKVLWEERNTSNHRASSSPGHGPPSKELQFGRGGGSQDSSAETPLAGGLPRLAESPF
# T2 sequence (P43220 24-463): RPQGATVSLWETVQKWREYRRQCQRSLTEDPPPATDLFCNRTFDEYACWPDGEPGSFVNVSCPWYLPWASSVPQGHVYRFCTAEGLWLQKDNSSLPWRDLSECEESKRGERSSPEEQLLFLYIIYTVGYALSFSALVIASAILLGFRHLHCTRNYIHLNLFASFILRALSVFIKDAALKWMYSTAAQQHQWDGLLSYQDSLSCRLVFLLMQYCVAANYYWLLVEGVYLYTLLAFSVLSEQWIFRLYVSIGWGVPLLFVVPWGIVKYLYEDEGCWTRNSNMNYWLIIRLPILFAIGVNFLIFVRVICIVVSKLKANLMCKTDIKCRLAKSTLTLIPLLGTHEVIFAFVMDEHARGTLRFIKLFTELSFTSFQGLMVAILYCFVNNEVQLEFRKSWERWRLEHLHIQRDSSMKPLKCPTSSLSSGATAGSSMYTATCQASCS
Structure (SMILES),EC50 (GIP receptor) [nM],EC50 (GLP-1 receptor) [pM],EC50 (glucagon receptor) [nM]
CCCCCCCCCCCCCCCC(=O)N[C@@H](CCC(=O)NCCCC[C@H](NC(=O)[C@H](CC(=O)O)NC(=O)[C@H](CO)NC(=O)[C@@H](NC(=O)[C@H](Cc1ccccc1)NC(=O)[C@@H](NC(=O)CNC(=O)[C@H](CCC(N)=O)NC(=O)CN(C)C(=O)[C@@H](N)Cc1c[nH]cn1)[C@@H](C)O)[C@@H](C)O)C(=O)N[C@@H](CO)C(=O)N[C@@H](CCCCN)C(=O)N[C@@H](Cc1ccc(O)cc1)C(=O)N[C@@H](CC(C)C)C(=O)N[C@@H](CC(=O)O)C(=O)N[C@@H](CCC(=O)O)C(=O)N[C@@H](CCCNC(=N)N)C(=O)N[C@@H](C)C(=O)N[C@@H](C)C(=O)N[C@@H](CCC(N)=O)C(=O)N[C@@H](CC(=O)O)C(=O)N[C@@H](Cc1ccccc1)C(=O)N[C@H](C(=O)N[C@@H](CCC(N)=O)C(=O)N[C@@H](Cc1c[nH]c2ccccc12)C(=O)N[C@@H](CC(C)C)C(=O)N[C@@H](CC(C)C)C(=O)N[C@@H](CCC(=O)O)C(=O)NCC(=O)NCC(=O)N1CCC[C@H]1C(=O)N[C@@H](CO)C(=O)N[C@@H](CO)C(=O)NCC(=O)N[C@@H](C)C(=O)N1CCC[C@H]1C(=O)N1CCC[C@H]1C(=O)N1CCC[C@H]1C(=O)N[C@@H](CO)C(N)=O)C(C)C)C(=O)O [compound 28] (H-H[Sar]QGTFTSDK([γGlu-Palmitoyl])SKYLDERAAQDFVQWLLEGGPSSGAPPPS-NH2),0.081,2,0.022
CCCCCCCCCCCCCCCC(=O)N[C@@H](CCC(=O)NCCCC[C@H](NC(=O)[C@H](CC(=O)O)NC(=O)[C@H](CO)NC(=O)[C@@H](NC(=O)[C@H](Cc1ccccc1)NC(=O)[C@@H](NC(=O)CNC(=O)[C@H](CCC(N)=O)NC(=O)CNC(=O)[C@@H](N)Cc1cccs1)[C@@H](C)O)[C@@H](C)O)C(=O)N[C@@H](CO)C(=O)N[C@@H](CCCCN)C(=O)N[C@@H](Cc1ccc(O)cc1)C(=O)N[C@@H](CC(C)C)C(=O)N[C@@H](CC(=O)O)C(=O)N[C@@H](CCC(=O)O)C(=O)N[C@@H](CCCNC(=N)N)C(=O)N[C@@H](C)C(=O)N[C@@H](C)C(=O)N[C@@H](CCC(N)=O)C(=O)N[C@@H](CC(=O)O)C(=O)N[C@@H](Cc1ccccc1)C(=O)N[C@H](C(=O)N[C@@H](CCC(N)=O)C(=O)N[C@@H](Cc1c[nH]c2ccccc12)C(=O)N[C@@H](CC(C)C)C(=O)N[C@@H](CC(C)C)C(=O)N[C@@H](CCC(=O)O)C(=O)NCC(=O)NCC(=O)N1CCC[C@H]1C(=O)N[C@@H](CO)C(=O)N[C@@H](CO)C(=O)NCC(=O)N[C@@H](C)C(=O)N1CCC[C@H]1C(=O)N1CCC[C@H]1C(=O)N1CCC[C@H]1C(=O)N[C@@H](CO)C(N)=O)C(C)C)C(=O)O [compound 29] (H-[2Thi]GQGTFTSDK([γGlu-Palmitoyl])SKYLDERAAQDFVQWLLEGGPSSGAPPPS-NH2; N-terminus assumed),0.095,7,0.038
CCCCCCCCCCCCCCCC(=O)N[C@@H](CCC(=O)NCCCC[C@H](NC(=O)[C@H](CC(=O)O)NC(=O)[C@H](CO)NC(=O)[C@@H](NC(=O)[C@H](Cc1ccccc1)NC(=O)[C@@H](NC(=O)CNC(=O)[C@H](CCC(N)=O)NC(=O)CNC(=O)CCc1c[nH]cn1)[C@@H](C)O)[C@@H](C)O)C(=O)N[C@@H](CO)C(=O)N[C@@H](CCCCN)C(=O)N[C@@H](Cc1ccc(O)cc1)C(=O)N[C@@H](CC(C)C)C(=O)N[C@@H](CC(=O)O)C(=O)N[C@@H](CCC(=O)O)C(=O)N[C@@H](CCCNC(=N)N)C(=O)N[C@@H](C)C(=O)N[C@@H](C)C(=O)N[C@@H](CCC(N)=O)C(=O)N[C@@H](CC(=O)O)C(=O)N[C@@H](Cc1ccccc1)C(=O)N[C@H](C(=O)N[C@@H](CCC(N)=O)C(=O)N[C@@H](Cc1c[nH]c2ccccc12)C(=O)N[C@@H](CC(C)C)C(=O)N[C@@H](CC(C)C)C(=O)N[C@@H](CCC(=O)O)C(=O)NCC(=O)NCC(=O)N1CCC[C@H]1C(=O)N[C@@H](CO)C(=O)N[C@@H](CO)C(=O)NCC(=O)N[C@@H](C)C(=O)N1CCC[C@H]1C(=O)N1CCC[C@H]1C(=O)N1CCC[C@H]1C(=O)N[C@@H](CO)C(N)=O)C(C)C)C(=O)O [compound 31] (Desaminohistidyl-GQGTFTSDK([γGlu-Palmitoyl])SKYLDERAAQDFVQWLLEGGPSSGAPPPS-NH2),0.226,3,0.022
CCCCCCCCCCCCCCCC(=O)N[C@@H](CCC(=O)NCCCC[C@H](NC(=O)[C@H](CC(=O)O)NC(=O)[C@H](CO)NC(=O)[C@@H](NC(=O)[C@H](Cc1ccccc1)NC(=O)[C@@H](NC(=O)CNC(=O)[C@H](CCC(N)=O)NC(=O)[C@@H]1CCCN1C(=O)[C@@H](N)Cc1cccs1)[C@@H](C)O)[C@@H](C)O)C(=O)N[C@@H](CO)C(=O)N[C@@H](CCCCN)C(=O)N[C@@H](Cc1ccc(O)cc1)C(=O)N[C@@H](CC(C)C)C(=O)N[C@@H](CC(=O)O)C(=O)N[C@@H](CCC(=O)O)C(=O)N[C@@H](CCCNC(=N)N)C(=O)N[C@@H](C)C(=O)N[C@@H](C)C(=O)N[C@@H](CCC(N)=O)C(=O)N[C@@H](CC(=O)O)C(=O)N[C@@H](Cc1ccccc1)C(=O)N[C@H](C(=O)N[C@@H](CCC(N)=O)C(=O)N[C@@H](Cc1c[nH]c2ccccc12)C(=O)N[C@@H](CC(C)C)C(=O)N[C@@H](CC(C)C)C(=O)N[C@@H](CCC(=O)O)C(=O)NCC(=O)NCC(=O)N1CCC[C@H]1C(=O)N[C@@H](CO)C(=O)N[C@@H](CO)C(=O)NCC(=O)N[C@@H](C)C(=O)N1CCC[C@H]1C(=O)N1CCC[C@H]1C(=O)N1CCC[C@H]1C(=O)N[C@@H](CO)C(N)=O)C(C)C)C(=O)O [compound 33] (H-[2Thi]PQGTFTSDK([γGlu-Palmitoyl])SKYLDERAAQDFVQWLLEGGPSSGAPPPS-NH2),0.43,5,0.121
CCCCCCCCCCCCCCCC(=O)N[C@@H](CCC(=O)NCCCC[C@H](NC(=O)[C@H](CC(=O)O)NC(=O)[C@H](CO)NC(=O)[C@@H](NC(=O)[C@H](Cc1ccccc1)NC(=O)[C@@H](NC(=O)CNC(=O)[C@H](CCC(N)=O)NC(=O)CNC(=O)[C@H](CCC(N)=O)NC(C)=O)[C@@H](C)O)[C@@H](C)O)C(=O)N[C@@H](CO)C(=O)N[C@@H](CCCCN)C(=O)N[C@@H](Cc1ccc(O)cc1)C(=O)N[C@@H](CC(C)C)C(=O)N[C@@H](CC(=O)O)C(=O)N[C@@H](CCC(=O)O)C(=O)N[C@@H](CCCNC(=N)N)C(=O)N[C@@H](C)C(=O)N[C@@H](C)C(=O)N[C@@H](CCC(N)=O)C(=O)N[C@@H](CC(=O)O)C(=O)N[C@@H](Cc1ccccc1)C(=O)N[C@H](C(=O)N[C@@H](CCC(N)=O)C(=O)N[C@@H](Cc1c[nH]c2ccccc12)C(=O)N[C@@H](CC(C)C)C(=O)N[C@@H](CC(C)C)C(=O)N[C@@H](CCC(=O)O)C(=O)NCC(=O)NCC(=O)N1CCC[C@H]1C(=O)N[C@@H](CO)C(=O)N[C@@H](CO)C(=O)NCC(=O)N[C@@H](C)C(=O)N1CCC[C@H]1C(=O)N1CCC[C@H]1C(=O)N1CCC[C@H]1C(=O)N[C@@H](CO)C(N)=O)C(C)C)C(=O)O [compound 34] (Ac-QGQGTFTSDK([γGlu-Palmitoyl])SKYLDERAAQDFVQWLLEGGPSSGAPPPS-NH2),0.436,611,0.163
CCCCCCCCCCCCCCCC(=O)N[C@@H](CCC(=O)NCCCC[C@H](NC(=O)[C@H](CC(=O)O)NC(=O)[C@H](CO)NC(=O)[C@@H](NC(=O)[C@H](Cc1ccccc1)NC(=O)[C@@H](NC(=O)CNC(=O)[C@H](CCC(N)=O)NC(=O)C(C)(C)NC(=O)[C@@H](N)Cc1c[nH]cn1)[C@@H](C)O)[C@@H](C)O)C(=O)N[C@@H](CO)C(=O)N[C@@H](CCCCN)C(=O)N[C@@H](Cc1ccc(O)cc1)C(=O)N[C@@H](CC(C)C)C(=O)N[C@@H](CC(=O)O)C(=O)N[C@@H](CCC(=O)O)C(=O)N[C@@H](CCCNC(=N)N)C(=O)N[C@@H](C)C(=O)N[C@@H](C)C(=O)N[C@@H](CCC(N)=O)C(=O)N[C@@H](CC(=O)O)C(=O)N[C@@H](Cc1ccccc1)C(=O)N[C@H](C(=O)N[C@@H](CCC(N)=O)C(=O)N[C@@H](Cc1c[nH]c2ccccc12)C(=O)N[C@@H](CC(C)C)C(=O)N[C@@H](CC(C)C)C(=O)N[C@@H](CCC(=O)O)C(=O)NCC(=O)NCC(=O)N1CCC[C@H]1C(=O)N[C@@H](CO)C(=O)N[C@@H](CO)C(=O)NCC(=O)N[C@@H](C)C(=O)N1CCC[C@H]1C(=O)N1CCC[C@H]1C(=O)N1CCC[C@H]1C(=O)N[C@@H](CO)C(N)=O)C(C)C)C(=O)O [compound 37] (H-H[Aib]QGTFTSDK([γGlu-Palmitoyl])SKYLDERAAQDFVQWLLEGGPSSGAPPPS-NH2; N-terminus assumed),0.003,6,0.009
